Data published in EP0412158A1, “ONCOSTATIC DRUG” (priority 1987, dated 1988).
Values joined by “and” are separate entries in the source; they are usually repeats but may differ in a detail not shown here. Identical values can stand only once. Like-named read-outs stand apart in the source and are kept apart here. Marks after values point to notes of the source that are not given here.

How the values were obtained:
MM-46 breast cancer [1] = assay type: in vivo, female C3H/He mice
Protocol: The aforementioned active compound M was dissolved in distilled water to obtain an aqueous solution containing the compound in a concentration of 10 mg/ml. To female C3H/He mice (five weeks old) to which MM-46 breast cancer was transplanted in a ratio of 1.0 x 10^5 cells per mouse, the aqueous solution was administered intraperitoneally (ip) or orally (po) at a dose of 100 mg and a dose of 200 mg per kg of body weight for 9 consecutive days to measure the periods of the mices survival. For comparison, mice to which no aqueous solution was administered was similarly tested.

methyl cholanthrene A = experiment: Methyl cholanthrene A tumor, evaluation by elongation of period of survival (Examples 31, 34 and 35); assay type: in vivo, female BALB/C mice; conditions: 100 mg/kg, ip × 9 (D1~D9)
Protocol: The active compounds, M to 0, mentioned above were severally dissolved in distilled water to obtain aqueous solutions containing the compounds in a fixed concentration of 10 mg/ml. To be specific, to female BALB/C mice (five weeks old) to which methyl cholanthrene A had been transplanted in a ratio of 1.0 x 10^5 cells per mouse, […] for 9 consecutive days to determine the mice's periods of survival. For comparison, mice to which no aqueous solution was administered and mice to which aminonitrosourea was administered were similarly tested.

[2] = system: methyl cholanthrene A tumor; experiment: Methyl cholanthrene A tumor, evaluation by size of tumor (Examples 31 to 33); assay type: in vivo, female BALB/C mice
Protocol: A heteropoly acid salt, Na5[IM06O24]•34H2O (Compound M), and other compounds (Compounds N and O ) were severally dissolved in distilled water to obtain aqueous solutions containing the salts in a fixed concentration of 10 mg/ml. To female BALB/C mice (five weeks old) to which methyl cholanthrene A tumor had been transplanted, the aqueous solutions were administered to test the compounds for antineoplastic activity. To be specific, the methyl cholanthrene A was transplanted to the mice at a ratio of 1.0 x 10^5 cells per mouse and the aqueous solutions were administered ([…]) for 9 consecutive days by intraperitoneal injection. On elapse of 14 and 21 days after the stop of the administration, the sizes of tumors in the mice were measured. For comparison, mice to which no aqueous solution was administered and mice to which aminonitrosourea was administered were similarly tested.

human lung cancer (OAT) = assay type: in vivo, female ICR/cd-1 mice
Protocol: A patch of human lung cancer [cancer cells recommended by National Cancer Institute (NCI) of the U.S.A.] (OAT) measuring approximately 1 x 1 mm in area was transplanted beneath the hepatic capsule of each of female ICR/cd-1 mice (18 to 20 g) five to six weeks old (SRC method).
Then, an aqueous solution of 1% by weight of the aforementioned compound M was administered by intraperitoneal injection (ip) at a dose of 100 mg/kg and a dose of 200 mg/kg to the mice once per day for 5 consecutive days. The body weights of the mice and the sizes of tumor in the mice were measured on the 7th day, i.e. after one days interval following the stop of the administration to evaluate the effect of compound.

MM-46 breast cancer [3] = assay type: in vivo, female C3H/He mice; conditions: for T/C: tumor weight
Protocol: The heteropoly acid salt (Compound M) mentioned above was dissolved in distilled water to obtain an aqueous solution containing the compound in a concentration of 10 mg/ml. This aqueous solution was administered to female C3H/He mice (five weeks old) to which MM-46 breast cancer had been transplanted, to test the compound for antineoplastic activity. To be more specific, the MM-46 breast cancer was transplanted to the mice in a ratio of 1.0 x 10^5 cells per mouse and the aqueous solution was administered (at a dose of 100 mg and a dose of 200 mg per kg of body weight) intraperitoneally (ip) or orally (po) for 9 consecutive days. After elapse of 14 days following the stop of the administration, the sizes of tumor were measured. For comparison, mice to which no aqueous solution was administered were similarly tested.

breast cancer (MX-1) = assay type: in vivo, female nude mice; conditions: 100 mg/kg ip ×10; for T/C: tumor volume
Protocol: A patch of breast cancer [cancer cells recommended by National Cancer Institute (NCI) of the U.S.A.] (MX-1) measuring approximately 2 x 2 mm in area was transplanted to each of female nude mice five weeks old. To the mice, an aqueous solution of the aforementioned heteropoly acid salt (Compound M) was administered at a dose of 100 mg/kg once a day by intraperitoneal injection for 10 consecutive days on elapse of 17 days following the transplantation of tumor (ip). For 15 days following the stop of the administration, the volumes of tumor in the mice were measured to evaluate the effect of compound. At ip (x 10), significant suppression of hyperplasia appeared around the 4th day and a strong supression of hyperplasia of cancer was maintained even after 25 days following the completion of transplantation. For comparison, mice to which no aqueous solution was administered were similarly tested.

## Nas [IMo6O24] • 34H2O [Compound M]
MM-46 breast cancer [1]; 100 mg/kg/day ip×9
  % ILS: 100.9%
  (column without head: number of mice/total number of mice): 1/7
  Average days of survival ±SE: 55.1±8.7(7) days
MM-46 breast cancer [1]; 200 mg/kg/day po×9
  % ILS: 59.7%
  (column without head: number of mice/total number of mice): 0/6
  Average days of survival ±SE: 43.8±3.9(6) days
Methyl cholanthrene A
  Average number of days of survival ±SE: 42.57±5.77(7) days
  ILS: 61.3%
[2]; 100 mg/kg, ip × 9 (D1~D9)
  Average weight of tumor after elapse of 14 days ± SE: 191.1±38.8(7) mg
[2]; 100 mg/kg.ip for 9 consecutive days, judged by increase of body weight, result in words
  toxicity: very slight toxicity
Human lung cancer (OAT); 100 mg/kg, IP 1~6 (except for 4)
  T/C: 77.4%
Human lung cancer (OAT); 100 mg/kg, IP 1~6 (except for 4), group mean
  Tumorous activity T7/T0: 2.00±0.20
Human lung cancer (OAT); 100 mg/kg, IP 1~6 (except for 4), individual mice
  Tumorous activity T7/T0: 2.25 and 1.60 and 2.15
Human lung cancer (OAT); 100 mg/kg, IP 1~6 (except for 4), size of tumor on 7th day, individual mice
  Tumorous activity T7: 22.5 omu and 16.0 omu and 21,5 omu
Human lung cancer (OAT); result in words
  antineoplastic activity: strong antineoplastic activity
MM-46 breast cancer [3]; 100 mg/kg/day ip×9
  Average weight of tumor 21 days after transplantation ±SE: 560±283(6) mg
  Number of tumorless mice /total number of mice: 0/6
  T/C: 0.277
MM-46 breast cancer [3]; 200 mg/kg/day po×9
  Average weight of tumor 21 days after transplantation ±SE: 572±76(6) mg
  Number of tumorless mice /total number of mice: 0/7
  T/C: 0.258
Breast cancer (MX-1); day 1
  Average volume of tumor, Average ±SE: 333.2±25.0 mm^3
Breast cancer (MX-1); day 2
  Average volume of tumor, Average ±SE: 404.7±16.5 mm^3
  T/C: 90.9%
Breast cancer (MX-1); day 3
  Average volume of tumor, Average ±SE: 510.0±38.8 mm^3
  T/C: 88.6%
Breast cancer (MX-1); day 4
  Average volume of tumor, Average ±SE: 575.0±14.4 mm^3
  T/C: 85.9* %
Breast cancer (MX-1); day 5
  Average volume of tumor, Average ±SE: 555.2±44.7 mm^3
  T/C: 74.7** %
Breast cancer (MX-1); day 6
  Average volume of tumor, Average ±SE: 565.5±36.7 mm^3
  T/C: 76.1** %
Breast cancer (MX-1); day 7
  Average volume of tumor, Average ±SE: 616.7±20.3 mm^3
  T/C: 64.3 **** %
Breast cancer (MX-1); day 8
  Average volume of tumor, Average ±SE: 786.0±40.0 mm^3
  T/C: 75.4*** %
Breast cancer (MX-1); day 9
  Average volume of tumor, Average ±SE: 869.0±33.2 mm^3
  T/C: 63.6*** %
Breast cancer (MX-1); day 10
  Average volume of tumor, Average ±SE: 957.9±38.1 mm^3
  T/C: 64.8*** %
Breast cancer (MX-1); day 11
  Average volume of tumor, Average ±SE: 1092.7±32.4 mm^3
  T/C: 69.5*** %
Breast cancer (MX-1); day 15
  Average volume of tumor, Average ±SE: 1540.5±106.6 mm^3
  T/C: 61.7** %
Breast cancer (MX-1); day 18
  Average volume of tumor, Average ±SE: 1821.0±127.4 mm^3
  T/C: 61.5*** %
Breast cancer (MX-1); day 21
  Average volume of tumor, Average ±SE: 2182.0±148.6 mm^3
  T/C: 64.5*** %
Breast cancer (MX-1); day 25
  Average volume of tumor, Average ±SE: 2671.7±154.5 mm^3
  T/C: 73.0** %
